Laboratory results taken from patent publication US6555533B2, “Use of certain substituted caprolactams in treating tumors” (Novartis AG, priority 1998, dated 2003).
Where two headings read alike, the source gives them in different places. Marks after values point to notes of the source that are not given here.

Columns and labels:
[1] = system: MDA-MB-435 breast carcinoma; assay: Anchorage Dependent Growth Monolayer Assay (ADGMA), MDA-MB-435; format: cell-based, human; conditions: 3-day exposure, MTS readout; read-out: IC50 (average±S.D.) MDA-MB-435
Protocol: (§1) As indicated above, all of the compounds of formula I, and their corresponding pharmaceutically acceptable acid addition salts, are anti-tumor agents and are, therefore, useful in inhibiting the growth of various lymphomas, sarcomas, carcinomas, myelomas, and leukemia cell lines.
(§2) The ADGMA compares the number of viable cells following a 3-day exposure to a test compound relative to a number of cells present at the time the test compound was added. […] The absorbance at 490 nm (A490) of the formazan derivative is proportional to the number of viable cells. The IC50 for a test compound is the concentration of compound required to reduce the final cell number to 50% of the final control cell number. If cell proliferation is inhibited, the assay further defines compounds as cytostatic (cell number after 3-day compound incubation >cell number at time of compound addition) or cytotoxic (cell number after 3-day compound incubation <cell number at time of compound addition).
The MDA-MB-435 breast carcinoma line was obtained from the American Type Culture Collection (ATCC) and used between passages 4-20 following thawing. MDA-MB-435 breast carcinoma was maintained and plated in DME/F12 medium containing 10% fetal bovine serum, 15 mM HEPES (pH=7.4), 100 units/mL penicillin, and 100 μg/mL streptomycin.
(§3) Cell lines are trypsinized and counted using a Coulter counter to determine plating densities. Cells are then plated in their respective maintenance media (100 μL/well) in 96 well plates at the following densities: MDA-MB-435, 3,000 cells/well; A549 and HCT-116, 700 cells/well; are PC-3, 2500 cells/well. The number of cells plates as determined in preliminary experiments, results in cell densities of 75-90% of confluency by 4 days after plating. Initial cell densities, assayed one day after plating, are roughly 0.15-0.20 absorbance units greater than the media blank. Ninety-six well plates are seeded on day 0 and the test compounds are added on day 1. A control plate is created for each cell line that receives media only in row A and cells in row B. One day following plating, test compounds are added (in a final volume of 100 μL) to the test plates. Control plates receive 10 μL MTS mixture (prepared fresh on day of addition to cell plates at a ratio of 10 μL of a 0.92 mg/mL solution of PMS to a 190 μL of a 2 mg/mL solution of MTS) and 100 μL media. A490 of control plates is read 4 h after MTS addition to determine initial cell density values for each cell line. Three days after addition of test compound, 10 μL/well of MTS mixture is added to the test plates and A490 is read 4 h later. A490 values for wells containing cells are corrected for media absorbance, then normalized to initial density readings to determine percent net growth. IC50 values are determined from graphs of percent net growth as a function of compound concentration. Percent net growth is calculated as (Cell+Drug A490−Initial A490/Cell+Drug Vehicle A490−Initial A490).

[2] = system: PC-3 prostate carcinoma; assay: Anchorage Dependent Growth Monolayer Assay (ADGMA), PC-3; format: cell-based, human; conditions: 3-day exposure, MTS readout; read-out: IC50 (average±S.D.) PC-3
Protocol: as §1, §2
(§4) A549, HCT-116 and PC-3 cells were maintained in RPMI 1640 containing 5% FBS, […], 1 nM β-estradiol, 1 nM testosterone, 100 units/mL penicillin and 100 ug/mL streptomycin.
as §3

[3] = system: MDA-MB-435 tumor xenografts; assay: MDA-MB-435 breast carcinoma xenograft model; format: in vivo, athymic (nu/nu) mice
Protocol: Positive controls are carried out with doxorubicin administered 3 times per week i.v.
The following results were obtained for compounds of Ex.1-Ex.12 tested against MDA-MB-435 tumor xenografts 3×/week for 3 weeks: […]

[4] = system: A549 non-small cell lung carcinoma; assay: Anchorage Dependent Growth Monolayer Assay (ADGMA), A549; format: cell-based, human; conditions: 3-day exposure, MTS readout; read-out: IC50 (average±S.D.) A549
Protocol: as §1, §2, §4, §3

[5] = system: HCT-116 colon carcinoma; assay: Anchorage Dependent Growth Monolayer Assay (ADGMA), HCT-116; format: cell-based, human; conditions: 3-day exposure, MTS readout; read-out: IC50 (average±S.D.) HCT-116
Protocol: as §1, §2, §4, §3

[6] = system: HCT-116 tumor xenografts; assay: HCT-116 colon carcinoma xenograft model; format: in vivo, athymic (nu/nu) mice
Protocol: Positive controls are carried out with 5-fluorouracil administered 1 time per week i.v.

[7] = system: A549 tumor xenografts
From the text: Utilizing this model, one can measure the ability of test compounds to inhibit the growth of human tumor xenografts growing subcutaneously (s.c.) in athymic nude mice. The histologic tumor types employed were MDA-MB-435 breast, A549 non-small cell lung, HCT-116 colon and PC-3 prostate carcinomas.
A549 non-small cell lung carcinoma xenograft model: Briefly, 10 million cells were implanted s.c. into the right flank of athymic (nu/nu) mice, and were allowed to grow until a mass of approximately 120 mm^3 was established. The test compounds are administered three times per week intravenously (i.v.) for three weeks in 5% dextrose, 10%DMSO in water. The test compounds are administered in dose-response fashion in order to evaluate and document the full potential range of activity (efficacy and toxicity) for a given compound. Positive controls are carried out with mitomycin C administered 3 times per week intraperitioneally (i.p.).
Toxicity was monitored by recording average group body weights twice weekly, and by daily observation of general health. Efficacy was monitored by taking measurements of tumor length, width, and depth weekly using digital calipers coupled to automated data collectors. Mean tumor volume (MTV) at initiation of therapy was subtracted from final MTV in order to express the actual tumor growth during treatment (ΔMTV). Anti-tumor activity was expressed as %T/C (ΔMTV of treated group÷ΔMTV of control group×100). Regressions were calculated using the formula: (T/T0−1)×100%, where T is the tumor volume for the treatment group at the end of the experiment, and T0 is the tumor volume at the beginning of the experiment. Statistical significance was evaluated using a one-tailed Student's t-test (p<0.05).

[8] = H2O solubility; format: physicochemical; conditions: water; for Example 1 stated for the solid before preparative hplc
[9] = 10 μmol/kg i.v. 3×/week for 3 weeks
[10] = 33 μmol/kg i.v. 3×/week for 3 weeks
[11] = 100 μmol/kg i.v. 3×/week for 3 weeks

CO[C@@H](C(=O)N[C@H]1CC[C@@H](OC(=O)C2CCCC2)CNC1=O)[C@H](O)[C@@H](O)[C@H](O)/C=C/C(C)(C)C [Ex. 2]
IC50 [1]: 128 ± 47 nM
IC50 [2]: 145 ± 53 nM
% T/C [3, 9]: 67%
Dead/Total [3, 9]: 0/8
% T/C [3, 10]: 13* %
Dead/Total [3, 10]: 0/8
IC50 [4]: 201 ± 100 nM
IC50 [5]: 120 ± 29 nM
% T/C [6, 9]: 75%
Dead/Total [6, 9]: 0/8
Δ MTV [6, 9]: 303 mm^3
% T/C [6, 10]: 56* %
Dead/Total [6, 10]: 0/8
Δ MTV [6, 10]: 225 mm^3
% T/C [6, 11]: 25* %
Dead/Total [6, 11]: 0/8
Δ MTV [6, 11]: 102 mm^3
% T/C [7, 9]: 58%
Dead/Total [7, 9]: 0/8
Δ MTV [7, 9]: 44 mm^3
% T/C [7, 10]: 37* %
Dead/Total [7, 10]: 0/8
Δ MTV [7, 10]: 28 mm^3
% T/C [7, 11]: 9* %
Dead/Total [7, 11]: 0/7
Δ MTV [7, 11]: 7 mm^3
H2O solubility [8]: 18 mg/mL
